Type in all cases: tissue-based
Test [1] has as its target T1, Adrenergic receptor alpha-2 (Rattus norvegicus, UniProt P22086+P19328+P22909).
T1 sequence (P22086 whole entry): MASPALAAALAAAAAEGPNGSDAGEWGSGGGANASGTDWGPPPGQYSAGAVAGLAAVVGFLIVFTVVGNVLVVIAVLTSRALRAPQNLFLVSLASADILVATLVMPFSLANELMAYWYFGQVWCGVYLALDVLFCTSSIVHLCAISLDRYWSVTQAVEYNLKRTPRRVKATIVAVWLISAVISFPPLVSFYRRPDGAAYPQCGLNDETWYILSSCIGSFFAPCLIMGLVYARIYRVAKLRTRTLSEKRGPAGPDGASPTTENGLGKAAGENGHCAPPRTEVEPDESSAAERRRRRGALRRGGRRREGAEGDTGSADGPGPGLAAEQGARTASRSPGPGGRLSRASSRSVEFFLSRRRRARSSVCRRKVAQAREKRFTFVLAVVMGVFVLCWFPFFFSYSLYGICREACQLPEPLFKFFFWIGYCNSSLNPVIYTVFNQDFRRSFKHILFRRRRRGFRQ
T1 sequence (P19328 whole entry): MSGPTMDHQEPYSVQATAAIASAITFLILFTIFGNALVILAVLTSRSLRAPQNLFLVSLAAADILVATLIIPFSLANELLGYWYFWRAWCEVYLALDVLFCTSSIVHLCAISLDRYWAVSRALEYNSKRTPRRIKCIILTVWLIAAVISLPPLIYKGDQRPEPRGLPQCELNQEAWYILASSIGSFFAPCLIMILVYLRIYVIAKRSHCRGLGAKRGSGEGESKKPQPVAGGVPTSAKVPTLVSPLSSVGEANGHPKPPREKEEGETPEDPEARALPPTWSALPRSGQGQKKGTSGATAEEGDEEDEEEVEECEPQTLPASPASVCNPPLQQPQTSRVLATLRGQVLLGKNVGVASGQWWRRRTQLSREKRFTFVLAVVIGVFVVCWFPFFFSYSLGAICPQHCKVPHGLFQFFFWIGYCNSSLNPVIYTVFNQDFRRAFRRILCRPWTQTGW
T1 sequence (P22909 whole entry): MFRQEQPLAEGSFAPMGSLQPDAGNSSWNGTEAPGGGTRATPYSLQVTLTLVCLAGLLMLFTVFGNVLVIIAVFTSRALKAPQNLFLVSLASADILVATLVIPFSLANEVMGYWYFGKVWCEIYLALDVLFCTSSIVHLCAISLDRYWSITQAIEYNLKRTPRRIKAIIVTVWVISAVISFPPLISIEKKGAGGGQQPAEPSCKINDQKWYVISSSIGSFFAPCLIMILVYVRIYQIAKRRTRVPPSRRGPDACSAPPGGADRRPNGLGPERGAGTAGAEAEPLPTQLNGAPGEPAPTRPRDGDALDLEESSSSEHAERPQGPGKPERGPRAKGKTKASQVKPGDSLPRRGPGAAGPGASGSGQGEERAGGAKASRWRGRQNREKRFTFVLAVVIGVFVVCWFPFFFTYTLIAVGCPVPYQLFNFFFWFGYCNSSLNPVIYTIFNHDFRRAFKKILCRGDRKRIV
Nature of the test: Displacement of [3H]rauwolscine from alpha-2 adrenergic receptor in rat cerebral cortex. On the technique in general: Displacement assays read how much labelled ligand stays bound in the presence of the test substance.

The target in test [2] is T2, 5-hydroxytryptamine receptor 1A (Rattus norvegicus, UniProt P19327).
T2 sequence (P19327 whole entry): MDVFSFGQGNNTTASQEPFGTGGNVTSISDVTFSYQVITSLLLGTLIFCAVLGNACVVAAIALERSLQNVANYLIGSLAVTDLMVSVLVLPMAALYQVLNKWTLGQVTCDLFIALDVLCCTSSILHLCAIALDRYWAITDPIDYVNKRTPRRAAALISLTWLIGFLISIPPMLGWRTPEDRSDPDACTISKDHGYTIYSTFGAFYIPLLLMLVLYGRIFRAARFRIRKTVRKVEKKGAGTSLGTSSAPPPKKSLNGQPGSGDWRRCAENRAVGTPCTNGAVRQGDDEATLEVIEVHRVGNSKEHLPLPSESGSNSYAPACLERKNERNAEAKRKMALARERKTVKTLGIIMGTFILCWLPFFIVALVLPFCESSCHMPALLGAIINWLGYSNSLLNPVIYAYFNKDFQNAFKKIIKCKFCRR
Description: Displacement of [3H]8-OH-DPAT from 5HT1A serotonergic receptor in rat cerebral cortex.

Test [3] concerns the target T3, Serotonin 1a (5-HT1a) receptor/Adrenergic receptor alpha-1 (Rattus norvegicus) (UniProt P15823+P23944+P43140+P19327). Description: Selectivity for alpha-1 adrenergic receptor over 5HT1A serotonergic receptor in rat cerebral cortex.
In test [4] the target is T4, Adrenergic receptor alpha-1 (Rattus norvegicus, UniProt P15823+P23944+P43140).
T4 sequence (P15823 whole entry): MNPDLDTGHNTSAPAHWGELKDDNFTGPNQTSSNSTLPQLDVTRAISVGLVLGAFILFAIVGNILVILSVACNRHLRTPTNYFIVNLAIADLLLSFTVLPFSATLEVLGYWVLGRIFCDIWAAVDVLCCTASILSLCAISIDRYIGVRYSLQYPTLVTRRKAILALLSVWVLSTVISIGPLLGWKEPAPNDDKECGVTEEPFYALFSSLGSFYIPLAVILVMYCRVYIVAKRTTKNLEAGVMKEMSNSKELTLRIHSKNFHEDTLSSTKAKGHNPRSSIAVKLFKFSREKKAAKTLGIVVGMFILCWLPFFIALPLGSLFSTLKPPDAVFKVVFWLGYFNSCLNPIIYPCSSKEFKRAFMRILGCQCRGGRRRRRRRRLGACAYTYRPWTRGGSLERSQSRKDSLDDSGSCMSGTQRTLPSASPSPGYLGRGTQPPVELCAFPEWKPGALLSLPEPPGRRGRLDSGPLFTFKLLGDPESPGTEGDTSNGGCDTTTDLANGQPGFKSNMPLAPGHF
T4 sequence (P23944 whole entry): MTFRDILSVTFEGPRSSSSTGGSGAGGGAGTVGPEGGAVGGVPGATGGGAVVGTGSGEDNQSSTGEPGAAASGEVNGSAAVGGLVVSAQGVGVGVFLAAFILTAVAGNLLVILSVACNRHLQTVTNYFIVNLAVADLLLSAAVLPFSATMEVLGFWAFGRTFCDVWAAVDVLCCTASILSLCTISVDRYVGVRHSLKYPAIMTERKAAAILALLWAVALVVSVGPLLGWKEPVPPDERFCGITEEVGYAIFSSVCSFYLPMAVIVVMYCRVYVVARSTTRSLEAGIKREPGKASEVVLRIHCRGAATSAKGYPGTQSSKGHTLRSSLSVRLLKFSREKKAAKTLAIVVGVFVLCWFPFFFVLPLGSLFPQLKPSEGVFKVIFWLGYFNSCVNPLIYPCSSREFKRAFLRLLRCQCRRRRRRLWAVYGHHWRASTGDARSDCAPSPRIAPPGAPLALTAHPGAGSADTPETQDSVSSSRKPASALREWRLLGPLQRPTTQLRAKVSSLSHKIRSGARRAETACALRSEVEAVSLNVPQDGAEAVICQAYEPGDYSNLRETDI
T4 sequence (P43140 whole entry): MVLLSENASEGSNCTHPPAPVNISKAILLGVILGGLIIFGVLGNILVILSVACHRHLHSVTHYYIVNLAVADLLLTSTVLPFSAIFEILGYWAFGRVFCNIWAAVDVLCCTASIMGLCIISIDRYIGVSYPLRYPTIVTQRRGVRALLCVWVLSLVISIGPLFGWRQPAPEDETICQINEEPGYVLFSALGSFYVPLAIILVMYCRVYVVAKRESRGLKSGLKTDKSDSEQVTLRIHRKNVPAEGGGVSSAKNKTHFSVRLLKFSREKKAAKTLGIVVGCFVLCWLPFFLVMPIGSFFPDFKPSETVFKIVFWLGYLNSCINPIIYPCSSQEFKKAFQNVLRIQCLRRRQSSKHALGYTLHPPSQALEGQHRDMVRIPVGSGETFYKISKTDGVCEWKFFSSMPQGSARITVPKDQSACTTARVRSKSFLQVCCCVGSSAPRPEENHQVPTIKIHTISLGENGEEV
Nature of the test: Displacement of [3H]prazosin from alpha-1 adrenergic receptor in rat cerebral cortex.

In test [5] the target is T5, 5-hydroxytryptamine receptor 1A (Rattus norvegicus) (UniProt P19327).
T5 sequence (whole entry): T2 sequence (P19327 whole entry)
Nature of the test: Displacement of [3H]8-OH-DPAT from 5HT1A serotonergic receptor in rat cerebral cortex at 10 uM.

The target of test [6] is Adrenergic receptor alpha-1 (Rattus norvegicus) (UniProt P15823+P23944+P43140). Nature of the test: Displacement of [3H]prazosin from alpha-1 adrenergic receptor in rat cerebral cortex at 10 uM.
Test [7] concerns the target Adrenergic receptor alpha-2 (Rattus norvegicus) (UniProt P22086+P19328+P22909). Description: Displacement of [3H]rauwolscine from alpha-2 adrenergic receptor in rat cerebral cortex at 10 uM.
In test [8] the target is T3, Serotonin 1a (5-HT1a) receptor/Adrenergic receptor alpha-1 (Rattus norvegicus). Nature of the test: Selectivity for 5HT1A serotonergic receptor over alpha1 adrenergic receptor in rat cerebral cortex.

The Ki is a measure of affinity in units of concentration, obtained from inhibition or displacement. Turning to `CCOc1ccccc1N1CCN(CCn2nc(-c3ccc(C)cc3)c3ccccc3c2=O)CC1`, the values for the Ki in test [1], in test [2] and in test [4] were 0.867 µM, 0.951 µM and 0.0039 µM, respectively. In addition, the Ratio Ki in test [3] worked out at 244.

On to `COc1ccccc1N1CCN(CCn2nc(-c3ccc(C)cc3)c3ccccc3c2=O)CC1`, for which the Ki was found to be 0.578 µM in test [1], 0.473 µM in test [2] and 0.0035 µM in test [4]. The Ratio Ki in test [3] turned out to be 135.

As to `COc1ccccc1N1CCN(CCCCCCCn2nc(-c3ccc(C)cc3)c3ccccc3c2=O)CC1`, the inhibitory constant (Ki) in test [1] worked out at 0.105 µM; in test [2], 0.101 µM; in test [4] it was 0.0084 µM. Also, the Ratio Ki in test [3] amounted to 12.

Usually inhibition stands for how much of the control response was suppressed. A lower inhibition goes with a weak effect. Regarding `Cc1ccc(-c2nn(CCCCCCCn3ncc4ccccc4c3=O)c(=O)c3ccccc23)cc1`, the inhibition in test [5] is 10%; in test [6], 26%; in test [7], 15%.

Take `Cc1ccc(-c2nn(CCCCCCCN3CCN(c4cccc(Cl)c4)CC3)c(=O)c3ccccc23)cc1`: the inhibitory constant (Ki) in test [1] came out at 0.43 µM; in test [2], 0.673 µM; in test [4], 0.037 µM. Further, in test [3], the Ratio Ki was 18.2.

Regarding `Cc1ccc(-c2nn(CCCCN3CCN(c4cccc(C(F)(F)F)c4)CC3)c(=O)c3ccccc23)cc1`, the values for the inhibition constant (Ki) in test [1], in test [2] and in test [4] were 0.1865 µM, 0.0718 µM and 0.1116 µM, respectively. Further, the Ratio Ki in test [8] came out at 1.5.

As to `CCOc1ccccc1N1CCN(CCCCCCCn2nc(-c3ccc(C)cc3)c3ccccc3c2=O)CC1`, the Ki in test [1] came to 0.889 µM; in test [2] it was 0.207 µM; in test [4], 0.00733 µM. In test [3], the Ratio Ki turned out to be 28.2.

Take `Cc1ccc(-c2nn(CCN3CCN(c4ccccc4)CC3)c(=O)c3ccccc23)cc1`: the inhibition constant Ki in test [1] was 4.262 µM; in test [2], 6.2 µM; in test [4], 0.0253 µM. For the same compound, in test [3], the Ratio Ki was 245.

Consider `Cc1ccc(-c2nn(CCCCN3CCN(CC4COc5ccccc5O4)CC3)c(=O)c3ccccc23)cc1` (configuration not stated), for which the Ki came out at 0.278 µM in test [1], 1.93 µM in test [2] and 0.18 µM in test [4]. Moreover, in test [3], the Ratio Ki amounted to 10.7.

As for `Cc1ccc(-c2nn(CCCCN3CCN(c4ncccn4)CC3)c(=O)c3ccccc23)cc1`, the inhibitory constant (Ki) in test [1] worked out at 2.034 µM; in test [2] it was 1.18 µM; in test [4], 0.27 µM. Also, in test [3], the Ratio Ki came to 4.4.

With `CCOc1ccccc1N1CCN(CCCCn2nc(-c3ccc(C)cc3)c3ccccc3c2=O)CC1`, the results for the inhibition constant (Ki) in test [1], in test [2] and in test [4] were 0.06047 µM, 0.041 µM and 0.00223 µM, respectively. The Ratio Ki in test [3] turned out to be 18.3.

As to `Cc1ccc(-c2nn(CCCCCCCN3CCN(c4cccc(C(F)(F)F)c4)CC3)c(=O)c3ccccc23)cc1`, the Ki in test [1] worked out at 4.18 µM; in test [2] it was 0.722 µM; in test [4], 0.382 µM. Further, the Ratio Ki in test [3] was 1.9.

As for `Cc1ccc(-c2nn(CCCCN3CCN(c4ccccc4)CC3)c(=O)c3ccccc23)cc1`, the Ki in test [1] was determined as 0.186 µM; in test [2] it was 0.45 µM; in test [4], 0.0239 µM. For the same compound, the Ratio Ki in test [3] worked out at 18.8.

`Cc1ccc(-c2nn(CCCCN3CCN(c4ccccc4OC(C)C)CC3)c(=O)c3ccccc23)cc1`: the figures for the Ki in test [1], in test [2] and in test [4] were 0.096 µM, 0.081 µM and 0.00107 µM, respectively. For the same compound, the Ratio Ki in test [3] came out at 75.7.

For `COc1ccccc1N1CCN(CCCCn2nc(-c3ccc(C)cc3)c3ccccc3c2=O)CC1`, the Ki in test [1] was determined as 0.06037 µM; in test [2] it was 0.0385 µM; in test [4], 0.0026 µM. The Ratio Ki in test [3] was determined as 14.8.

For the compound `Cc1ccc(-c2nn(CCN3CCN(c4ccccc4OC(C)C)CC3)c(=O)c3ccccc23)cc1`, the Ki in test [1] is 1.301 µM; in test [2], 1.29 µM; in test [4], 0.005 µM. The Ratio Ki in test [3] came to 258.

Consider `Cc1ccc(-c2nn(CCCCN3CCN(c4cccc(Cl)c4)CC3)c(=O)c3ccccc23)cc1`, for which the Ki in test [1] is 0.1782 µM; in test [2] it was 0.116 µM; in test [4], 0.0124 µM. In addition, the Ratio Ki in test [3] worked out at 9.3.

The values are drawn from ChEMBL document CHEMBL1147682, “New 4-(4-methyl-phenyl)phthalazin-1(2H)-one derivatives and their effects on alpha1-receptors” (Bioorg Med Chem Lett, 2006).
